According to US12139768B2, “Polymerase chain reaction primers and probes for Mycobacterium tuberculosis” (Rutgers, The State University of New Jersey, priority 2014, dated 2024):
“Also recorded” adds a separate entry of the source.

How the values were obtained:
Type in all cases: cell-based, Mycobacterium tuberculosis
M.tb isolates [1] = test system: M.tb isolates
M.tb isolates [2] = test system: M.tb isolates; remark: listed apart in the source
M.tb isolates [3] = test system: M.tb isolates; remark: listed apart in the source

SMILES | Susceptibility in LJ media (M.tb isolates [1]) | Total number of isolates Resistant (LJ) (M.tb isolates [1]) | Level of resistance (M.tb isolates [2]) | Total number of isolates Resistant (MGIT) (M.tb isolates [3])
NCC[C@H](O)C(=O)N[C@@H]1C[C@H](N)[C@@H](O[C@H]2O[C@H](CN)[C@@H](O)[C@H](O)[C@H]2O)[C@H](O)[C@H]1O[C@H]1O[C@H](CO)[C@@H](O)[C@H](N)[C@H]1O [AMK, Amikacin] | susceptible | 90 | high level resistance; also recorded: no resistance to AMK | 
NC[C@H]1O[C@H](O[C@H]2[C@H](O)[C@@H](O[C@H]3O[C@H](CO)[C@@H](O)[C@H](N)[C@H]3O)[C@H](N)C[C@@H]2N)[C@H](O)[C@@H](O)[C@@H]1O [KAN, Kanamycin] |  | 106 |  | 113
